Measured values from ChEMBL document CHEMBL3880399 (2004).
The source made the active and inactive calls. The calls are words filed in the database; no cut-off is given here.

Columns and labels:
[1] = test system: Mus musculus; assay: Reduction in d-amphetamine-induced hyperactivity in sc dosed mouse; format: functional
[2] = test system: Homo sapiens; assay: Potentiation of levadopa-induced improvements in parkinsonian symptoms in parkinsonian patient administered orally once daily for four weeks with dose escalating once each week (30 mg on week2, 70 mg on week3, 150 mg on week 4 and 300 mg on week 5) in placebo controlled study lasting for 5 weeks measured on first day of each dose escalation; format: functional
[3] = test system: Rattus norvegicus; assay: Antipsychotic activity in rat assessed as reduction in MK-801-induced locomotor behaviors at 1 mg/kg, ip; format: functional, organism-based

Row | SMILES | Activity [1] | EC50 [2] [nM] | Activity [3]
1 | O=C(CCCN1CCC(O)(c2ccc(Cl)cc2)CC1)c1ccc(F)cc1 | Dose-dependent effect | – | –
2 | CN1CCN(C2=Nc3cc(Cl)ccc3Nc3ccccc32)CC1 [CLOZAPINE] | – | 6.4 | Active
